Drawing on PubChem BioAssay (NCI), this text covers TGI for 13 compounds.

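Grown in 96-well plates, cells were treated for 48 hours with each compound at five concentrations. Insufficient inhibition: endpoint recorded as highest concentration tested. TGI denotes the concentration required for complete inhibition of growth.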 Where a SMILES comes first, the peptide text is derived from it. [ ]: non-standard residue; d: D form. Hiv = CC(C)[C@H](O)C(=O)O

Common to all, as to test: NCI-60 cell line screen, 48 h
Assay [1] deals with EKVX NSCLC.
The subject of assay [2] is M14 melanoma.
Assay [3] deals with IGROV1 ovarian.
The test system of assay [4] is NCI-H226 lung.
For assay [5], the system named is OVCAR-5 ovarian.
Assay [6] concerns A549 NSCLC.
Assay [7] deals with UACC-62 melanoma.
For assay [8], the system named is HOP-62 NSCLC.
For assay [9], the system named is CAKI-1 renal.
In assay [10] the test system is HCT-116 colon.
The subject of assay [11] is 786-0 renal.
Assay [12] deals with COLO 205 colon.
In assay [13] the test system is K-562 leukemia.
Assay [14] relates to OVCAR-4 ovarian.
Assay [15] deals with U251 CNS.
In assay [16] the test system is SK-MEL-5 melanoma.
Assay [17] relates to TK-10 renal.
Assay [18] relates to HOP-92 NSCLC.
Assay [19] has as its system DU-145 prostate.

Regarding `COC1=CC(=O)C2C(C1=O)C(c1ccc(Cl)cc1)[C@@H]2C` (stereo partly drawn), the TGI is 71.4 µM in [1]; 71.7 µM in assay [2]; more than 100 µM in assay [3]; 81.8 µM in [4]; more than 100 µM in assay [5]; more than 100 µM in assay [6]. Moreover, the TGI in [7] was 63 µM; in assay [8], more than 100 µM; in assay [9] it was more than 100 µM; in [10], 33.7 µM; in [11], 57.2 µM; in [12], more than 100 µM. Further, the TGI in assay [13] is more than 100 µM; in [14], more than 100 µM; in assay [15] it was 62.9 µM; in [16], 41.2 µM; in assay [17], more than 100 µM; in [18], 54.8 µM.

`COC(=O)C(Cc1nc2ccccc2[nH]c1=O)C(=O)C(=O)Nc1ccc(F)cc1` (stereo not drawn): the TGI in assay [1] is more than 100 µM; in assay [2], more than 100 µM; in assay [3], more than 100 µM; in [4], more than 100 µM; in assay [6] it was more than 100 µM; in [7], 67.8 µM. Also, the TGI was more than 100 µM in assay [8]; more than 100 µM in [9]; more than 100 µM in assay [10]; 58.8 µM in [11]; more than 100 µM in assay [12]; more than 100 µM in [14]. Also, the TGI was more than 100 µM in assay [16], more than 100 µM in [17] and 56.4 µM in assay [18].

Regarding `C=C(C)CC(C)(c1cc2ccccc2n1C)N1CCOCC1` (stereo not drawn), the TGI in assay [1], in assay [2], in assay [3], in assay [4], in assay [6] and in assay [7] was more than 100 µM in each case. The TGI in assay [8], in assay [9], in [10], in assay [11], in assay [12] and in assay [14] was more than 100 µM throughout. The TGI in assay [16], in assay [17] and in assay [18] was more than 100 µM each time.

For the compound `CCOC(=O)c1c2ccc(/C=C/c3ccccc3)ccc-2c(C(=O)OCC)c1N`, the TGI in assay [1], in assay [2], in assay [3], in assay [4], in [5] and in [6] was more than 100 µM each time. In addition, the TGI in [7], in [9], in assay [10], in assay [11], in assay [12] and in assay [13] was more than 100 µM each time. Further, the TGI in assay [14], in assay [16], in [17] and in [18] was more than 100 µM in each case.

Take `COc1ccc2nc3c([N+](=O)[O-])ccc(NCCN(C)C)c3c(NCCN(C)C)c2c1`: the TGI is 4.59 µM in assay [1]; more than 10 µM in assay [2]; 5.13 µM in assay [3]; more than 10 µM in [19]; 4.26 µM in assay [6]; more than 10 µM in assay [7]. In addition, the TGI in assay [8] was 2.73 µM; in assay [9], more than 10 µM; in [11], 1.98 µM; in [12] it was more than 10 µM; in [13], 3.42 µM; in assay [14] it was 1.86 µM. The figures for the TGI in [16], in assay [17] and in [18] were 3.28 µM, more than 10 µM and more than 10 µM, respectively.

In the case of `CSc1nc2nc(C(O)C(O)C(O)CO)cnc2c(=O)[nH]1` (stereo not drawn), the TGI in assay [1], in [2], in [3], in assay [4], in assay [5] and in assay [6] was more than 100 µM throughout. The TGI in assay [7], in assay [8], in assay [9], in assay [10], in assay [11] and in [12] was more than 100 µM throughout. Moreover, the TGI in assay [15], in assay [16] and in assay [17] was more than 100 µM in each case.

Regarding `CC(=O)NC(CCCNC(=O)OCc1ccccc1)C(=O)O` (stereo not drawn), the TGI in assay [1], in [2], in [3], in assay [4], in assay [5] and in assay [6] was more than 100 µM in each case. Further, the TGI in [7], in [8], in assay [9], in [10], in [11] and in assay [12] was more than 100 µM in each case. Moreover, the TGI in assay [13], in assay [14], in [15], in [16], in assay [17] and in [18] was more than 100 µM in each case.

On to `CC(C)[C@@H]1OC(=O)[C@@H](C)NC(=O)[C@@H]2CCCN2C1=O` (cyclo([Hiv]-Pro-[dA])), for which the TGI in assay [1], in assay [2], in assay [3], in assay [19], in [4] and in [5] was more than 100 µM each time. For the same compound, the TGI in assay [6], in assay [7], in [8], in assay [9], in assay [10] and in assay [11] was more than 100 µM throughout. Moreover, the TGI in [12], in assay [14], in assay [16], in [17] and in [18] was more than 100 µM each time.

`CCOC(=O)C1=C(c2ccccc2)N(C(C)=O)Cc2ccccc21`: the TGI in assay [1] is more than 100 µM; in [2], 35 µM; in [3], more than 100 µM; in assay [4], 50.5 µM; in [5] it was more than 100 µM; in [6] it was 93.8 µM. In addition, the TGI in assay [7] is 25.5 µM; in assay [8], 44.3 µM; in assay [10], 30.2 µM; in assay [11], more than 100 µM; in [12], 32 µM; in assay [13] it was more than 100 µM. For the same compound, the TGI is more than 100 µM in assay [14]; 36.8 µM in [15]; 25.1 µM in assay [16]; more than 100 µM in [17]; 20.7 µM in assay [18].

On to `CCSc1nnc(-c2ccccc2)nc1Cc1ccc(OC)cc1`, for which the TGI in assay [1], in [2], in [3], in assay [4], in assay [6] and in assay [7] was more than 100 µM throughout. In addition, the TGI in assay [8], in [10], in assay [11], in assay [12], in [13] and in assay [14] was more than 100 µM throughout. The TGI in assay [15], in [17] and in assay [18] was more than 100 µM throughout.

Regarding `N#CC1CCCCC1NC1(C#N)CCCCC1` (stereo not drawn), the TGI in assay [1], in assay [2], in assay [3], in assay [4], in assay [6] and in assay [7] was more than 100 µM each time. Also, the TGI in [8], in assay [9], in assay [11], in assay [12], in [13] and in assay [15] was more than 100 µM each time. For the same compound, the TGI in assay [16] and in assay [17] was more than 100 µM in each case.

As for `C[N+]1(C)C[C@@H](O)C[C@@H]1C(=O)[O-]`, the TGI in [1], in [2], in assay [3], in [4], in [6] and in [7] was more than 100 µM each time. In addition, the TGI in [8], in assay [10], in [11], in assay [12], in assay [13] and in assay [14] was more than 100 µM throughout. The TGI in [15], in assay [17] and in assay [18] was more than 100 µM throughout.

For the compound `CCOC(=O)CC(NCc1ccc(N=Cc2nc3ccc(C(F)(F)F)cc3nc2-c2ccccc2)cc1)C(=O)OCC` (stereo not drawn), the TGI in assay [1], in [2], in assay [3], in [4], in assay [5] and in assay [6] was more than 100 µM throughout. Also, the TGI was 68.3 µM in [7]; more than 81.7 µM in assay [8]; more than 100 µM in assay [9]; more than 100 µM in assay [10]; more than 100 µM in assay [11]; more than 100 µM in assay [12]. The TGI in assay [13] was more than 100 µM; in assay [14], more than 100 µM; in assay [15], more than 100 µM; in assay [16], more than 100 µM; in assay [17], more than 80.6 µM; in assay [18], more than 100 µM.
